Earlier results, collected in EP4659594A1, “ORAL PRODUCTS CONTAINING MODIFIED NICOTINE-POLYMER COMPLEX” (Nicoventures Trading Limited, priority 2024, dated 2025).

Settings: octanol/water; source of the values not stated

Compound	logP
CCCCCCCS(=O)(=O)O [1-heptanesulfonic acid]	2.0
CCCCCCCCCCCC(=O)O [dodecanoic acid]	4.6
CC(C)[C@@H]1CC[C@@H](C)C[C@H]1OC(=O)CCC(=O)O [monomenthyl succinate]	3
ethyl benzoic acid	2.9
isopropyl benzoic acid	3.5
